Drawing on patent US9394285B2 (Pfizer Inc., priority 2013, dated 2016), this text covers EC50, Emax and Maximum for 24 compounds.

“And” between values parts separate entries of the source, which are not always exact repeats. Identical values can stand only once.

This experiment deals with human AMPK (full-length γ1, β1 and α1 subunits) (Homo sapiens (Human), UniProt Q13131+Q9Y478). The experiment in a line: AMPK in vitro biochemical assay (33P-based, SAMS peptide, PP2A dephosphorylation). The conditions noted are these: for EC50: activation of phosphorylated AMPK, 33P-ATP, SAMS peptide, PP2A treatment, 4-parameter fit; for Emax / Maximum: counts as % of positive control wells (enzyme, allosteric activator or AMP, PP2A and substrate); for Emax: read-out: Maximum. The source says: We designed a tricistronic AMPK expression construct that included open reading frames encoding the full-length γ1, β1 and α1 subunits of human AMPK with a ribosome-binding site (RBS) ahead of each coding region and subcloned this into pET-14b expression vector (Novagen, Madison, Wis.) using standard molecular biology techniques. AMPK tricistronic construct was transformed into E. coli BL21-CodonPlus™ (DE3)-RIPL strain (Stratagene) and transformants were selected on LB (Luria-Bertani) agar plates containing ampicillin (100 μg/ml). […] Optical density sample measurements were made on an UltroSpec 2000 spectrophotometer (Pharmacia Biotech) at 600 nm. When the cell density reached ˜0.9 OD, the temperature was reduced to 18° C. and the culture was induced at 18° C. with 0.1 mM Isopropylthiogalactoside (IPTG). […] The cell pellets were aliquoted into four portions, flash frozen in liquid nitrogen and were stored at −80° C. until purification. For purification, frozen cell paste was thawed and resuspended in 50 ml lysis buffer (50 mM Tris, pH 8.0, 150 mM NaCl, 10% glycerol, 2 mM Tris-2-carboxyethyl phosphine (TCEP), 20 mM imidazole and 0.001% Triton X-100). After sonication, insoluble material was removed by centrifugation at 15,000 rpm in a Sorvall® RC5 plus centrifuge for 30 min at 4° C. and the supernatant was loaded onto a 5 ml HisTrap™ HP column (GE Healthcare, Piscataway, N.J.) and washed with five column volumes of lysis buffer. Bound proteins were eluted using an elution buffer containing 300 mM imidazole. Fractions containing AMPK subunits were pooled based on SDS-10% PAGE analysis and dialyzed overnight in dialysis buffer (50 mM Tris, pH 8.0, 150 mM NaCl, 10% glycerol, 2 mM TCEP, and 0.001% Triton X-100). […] The phosphorylated AMPK complex was re-purified on HisTrap™ HP column as before, dialyzed over night in dialysis buffer. The phosphorylated AMPK complex was further purified by gel filtration chromatography with a Superdex 200 HiLoad 16/60 column (GE Healthcare) in SEC buffer (50 mM Tris, pH 8.0, 150 mM NaCl, 10% glycerol, 2 mM TCEP, and 0.001% Triton X-100).
Chain of human AMPK (full-length γ1, β1 and α1 subunits) (Q13131 whole entry): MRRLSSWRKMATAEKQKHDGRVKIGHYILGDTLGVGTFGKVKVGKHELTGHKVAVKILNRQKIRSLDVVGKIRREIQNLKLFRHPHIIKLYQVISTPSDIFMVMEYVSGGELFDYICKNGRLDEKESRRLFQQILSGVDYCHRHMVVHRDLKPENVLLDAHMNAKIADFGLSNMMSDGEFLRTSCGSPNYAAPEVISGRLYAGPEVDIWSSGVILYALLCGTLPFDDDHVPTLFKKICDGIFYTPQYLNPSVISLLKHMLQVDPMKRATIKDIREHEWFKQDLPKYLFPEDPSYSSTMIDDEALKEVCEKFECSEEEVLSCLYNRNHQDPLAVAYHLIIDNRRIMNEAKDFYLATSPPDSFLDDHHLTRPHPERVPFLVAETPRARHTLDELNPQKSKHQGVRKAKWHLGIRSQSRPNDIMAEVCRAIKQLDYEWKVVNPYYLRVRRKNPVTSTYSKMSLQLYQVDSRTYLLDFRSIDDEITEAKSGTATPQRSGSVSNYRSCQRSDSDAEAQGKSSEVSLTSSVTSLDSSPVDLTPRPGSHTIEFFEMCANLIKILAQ
Chain of human AMPK (full-length γ1, β1 and α1 subunits) (Q9Y478 whole entry): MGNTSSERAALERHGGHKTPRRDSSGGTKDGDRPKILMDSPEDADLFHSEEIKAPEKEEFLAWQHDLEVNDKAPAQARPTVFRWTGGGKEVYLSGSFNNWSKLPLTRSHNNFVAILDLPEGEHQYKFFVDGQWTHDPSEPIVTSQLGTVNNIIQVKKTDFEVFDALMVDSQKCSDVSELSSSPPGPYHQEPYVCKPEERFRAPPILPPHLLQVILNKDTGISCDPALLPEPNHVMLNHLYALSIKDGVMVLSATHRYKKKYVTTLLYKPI
Chain of human AMPK (full-length γ1, β1 and α1 subunits) (P54619 whole entry partner): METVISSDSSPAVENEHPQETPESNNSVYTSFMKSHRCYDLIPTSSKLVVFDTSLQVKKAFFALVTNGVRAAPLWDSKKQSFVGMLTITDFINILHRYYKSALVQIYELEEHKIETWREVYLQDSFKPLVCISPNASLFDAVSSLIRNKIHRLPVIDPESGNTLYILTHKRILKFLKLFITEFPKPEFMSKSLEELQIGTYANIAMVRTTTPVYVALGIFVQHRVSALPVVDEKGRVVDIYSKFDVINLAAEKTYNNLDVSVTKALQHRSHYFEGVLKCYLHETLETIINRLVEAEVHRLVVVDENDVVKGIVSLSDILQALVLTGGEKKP
The harvest time (72 hours post infection) was indicated by percent cell viability (to 85-90%) and increased cell diameter (3-4 μm). […] For purification, the cell paste was resuspended in 500 mL lysis buffer (50 mM Tris pH 8.0, 150 mM NaCl, 25 mM imidazole, 10% glycerol, 2 mM MgCl2, 2 mM TCEP+protease inhibitor cocktail. After lysis, cellular debris was removed by centrifugation at 36K×g for 1 hour. The resulting supernatant was filtered at 0.2 micron before applying to a 1 mL nickel charged IMAC column (HisTrap, GE). The bound resin was washed to baseline with 50 CV of 50 mM Tris pH 8.0, 150 mM NaCl, 25 mM imidazole, 10% glycerol, 2 mM MgCl2, 2 mM TCEP before eluting over a 20 CV gradient to 100% with wash buffer containing 500 mM imidazole. Pooled fractions containing PP2A were combined and diluted 10× with 50 mM Tris pH 8.0, 10% glycerol, 1 mM TCEP and applied to a 1 mL AIEX resin (HiTrap QFF, GE). The bound resin was washed with dilution buffer and PP2A was eluted over a 20 CV gradient to 100% 50 mM Tris pH 8.0, 500 mM NaCl, 10% glycerol, 1 mM TCEP and was further diluted 1:1 with 50 mM Tris pH 8.0, 150 mM NaCl, 10% glycerol, and 1 mM TCEP buffer.
The biochemical EC50 (half-maximal concentration required for full activation) of compounds for the activation of AMPK was evaluated by ^33P-based assay using SAMS peptide (commercially available) derived from ACC-1. Twenty μl of phosphorylated AMPK diluted in assay buffer, (50 mM HEPES, 1 mM EGTA, 10 mM MgCl2, 0.25 mM DTT, 0.01% Tween-20, 0.01% BSA (pH 7.5)) was added to 384 well plates containing 1 μL of test compound. Following a fifteen minute room temperature incubation, 10 μL of protein phosphatase PP2A was added to the plate to dephosphorylate pThr172 of AMPK. […] The reaction was terminated after 60 minutes incubation at room temperature by the addition of 15 μL of 2% H3PO4.

Usually EC50 stands for the concentration that produces a half-maximal response. Lower therefore signals greater potency. Consider `O=C(O)c1n[nH]c2cc(Cl)c(-c3cccc(O)c3)cc12` [Example 112, 6-Chloro-5-(3-hydroxyphenyl)-1H-indazole-3-carboxylic acid], for which a half-maximal response (EC50) required 1.32 µM and the Emax is 80%.

With `CN1CCC(c2ccc(-c3cc4c(C(=O)O)c[nH]c4cc3Cl)cc2)C1` (stereo not drawn) [Example 74, 6-chloro-5-[4-(1-methylpyrrolidin-3-yl)phenyl]-1H-indole-3-carboxylic acid], the response was half-maximal at 0.0443 µM (EC50) and the Emax is 110%.

Turning to `O=C1COC(c2ccc(-c3cc4c(C(=O)O)c[nH]c4cc3Cl)cc2)CN1` (stereo not drawn) [Example 79, 6-chloro-5-[4-(5-oxomorpholin-2-yl)phenyl]-1H-indole-3-carboxylic acid], the EC50 worked out at 0.104 µM and the Emax came to 102%.

Take `COc1cc(-c2cc3c(C(=O)O)c[nH]c3cc2F)ccc1C1(O)CCC1` [Example 25, 6-fluoro-5-[4-(1-hydroxycyclobutyl)-3-methoxyphenyl]-1H-indole-3-carboxylic acid]: the midpoint of the response, the EC50, lay at 0.111 µM and the Emax was 78%.

On to `NC(=O)COc1ccc(-c2cc3c(C(=O)O)c[nH]c3cc2Cl)cc1` [Example 70, 5-[4-(2-amino-2-oxoethoxy)phenyl]-6-chloro-1H-indole-3-carboxylic acid], for which a half-maximal response (EC50) required 0.0775 µM and the Emax turned out to be 106%.

Take `O=C(O)c1c[nH]c2cc(Cl)c(-c3ccc(OC[C@@H]4CCCN4)cc3)cc12` [Example 47, 6-chloro-5-{4[(2S)-pyrrolidin-2-ylmethoxy]phenyl}-1H-indole-3-carboxylic acid]: the concentration for a half-maximal effect (EC50) came out at 0.0653 µM and the Emax stood at 96%.

Turning to `O=C(O)c1c[nH]c2cc(Cl)c(-c3ccc(C4(O)COC4)cc3)cc12` [Example 5, 6-Chloro-5-(4-(3-hydroxyoxetan-3-yl)phenyl)-1H-indole-3-carboxylic acid], the midpoint of the response, the EC50, lay at 0.0357 µM and the Emax stood at 78%.

Regarding `COc1cc(-c2cc3c(C(=O)O)c[nH]c3cc2Cl)ccc1C1(O)COC1` [Example 60, 6-chloro-5-[4-(3-hydroxyoxetan-3-yl)-3-methoxyphenyl]-1H-indole-3-carboxylic acid], the response was half-maximal at 0.0078 µM (EC50) and the Emax stood at 65%.

In the case of `O=C(O)c1c[nH]c2cc(Cl)c(-c3ccc(-c4ccccc4)cc3)cc12` [Example 43, 5-(biphenyl-4-yl)-6-chloro-1H-indole-3-carboxylic acid], the EC50 was determined as 0.0017 µM and the Emax amounted to 68%.

As to `COc1cccc(-c2cc3c(C(=O)O)c[nH]c3cc2Cl)c1` [Example 29, 6-chloro-5-(3-methoxyphenyl)-1H-indole-3-carboxylic acid], the EC50 is 0.383 µM and the Emax is 101%.

Consider `CC(C)(CO)c1ccc(-c2cc3c(C(=O)O)c[nH]c3cc2Cl)cc1O` [Example 148, 6-chloro-5-[3-hydroxy-4-(1-hydroxy-2-methylpropan-2-yl)phenyl]-1H-indole-3-carboxylic acid], for which the EC50 turned out to be 0.00656 µM and the Emax is 119%.

For `O=C(O)c1c[nH]c2cc(Cl)c(-c3ccc(OCCCO)c(F)c3)cc12` [Example 58, 6-chloro-5-[3-fluoro-4-(3-hydroxypropoxy)phenyl]-1H-indole-3-carboxylic acid], it took 0.0892 µM to reach a half-maximal effect (EC50) and the Emax stood at 107%.

For the compound `O=C(O)c1n[nH]c2cc(Cl)c(-c3ccc4c(c3)CCC4)cc12` [Example 116, 6-Chloro-5-(2,3-dihydro-1H-inden-5-yl)-1H-indazole-3-carboxylic acid], the EC50 was 0.0478 µM and the Emax was 104%.

`O=C(O)c1c[nH]c2cc(Cl)c(-c3ccc(C4CCCO4)cc3)cc12` (single isomer, unassigned) [Example 155, 6-chloro-5-[4-(tetrahydrofuran-2-yl)phenyl]-1H-indole-3-carboxylic acid] showed an EC50 of 0.0478 µM and a Maximum of 126.9%.

Take `O=C(O)c1c[nH]c2cc(Cl)c(-c3ccc(CC(=O)N4CCOCC4)cc3)cc12` [Example 77, 6-chloro-5-{4-[2-(morpholin-4-yl)-2-oxoethyl]phenyl}-1H-indole-3-carboxylic acid]: a half-maximal effect (EC50) was put at 0.207 µM and the Emax came to 89%.

Turning to `O=C(O)c1c[nH]c2cc(Cl)c(-c3ccc(OCC4COC4)cc3)cc12` [Example 89, 6-chloro-5-[4-(oxetan-3-ylmethoxy)phenyl]-1H-indole-3-carboxylic acid], the EC50 was 0.0654 µM and the Emax came to 99%.

Regarding `O=C(O)c1c[nH]c2cc(Cl)c(-c3ccc(C4CCCOC4)cc3)cc12` (stereo not drawn) [Example 168, 6-chloro-5-[4-(tetrahydro-2H-pyran-3-yl)phenyl]-1H-indole-3-carboxylic acid], the concentration for a half-maximal effect (EC50) is 0.171 µM and the Emax is 109%.

With `O=C(O)c1c[nH]c2cc(F)c(-c3ccc(C4(CO)CCC4)cc3)c(F)c12` [Example 167, 4,6-difluoro-5-{4-[1-(hydroxymethyl)cyclobutyl]phenyl}-1H-indole-3-carboxylic acid], the EC50 came to 0.00933 µM and the Maximum is listed as 143.1%.

Regarding `CC(C)(CO)c1ccc(-c2cc3c(C(=O)O)c[nH]c3cc2Cl)cc1F` [Example 163, 6-chloro-5-[3-fluoro-4-(1-hydroxy-2-methylpropan-2-yl)phenyl]-1H-indole-3-carboxylic acid], the EC50 is 0.0129 µM and 0.0103 µM; the Emax came out at 110%.

`O=C(O)c1c[nH]c2cc(F)c(-c3ccc(C4CCCCO4)cc3)cc12` (single isomer, unassigned) [Example 172, 6-fluoro-5-[4-(tetrahydro-2H-pyran-2-yl)phenyl]-1H-indole-3-carboxylic acid]: a half-maximal effect (EC50) was put at 0.011 µM and the Maximum was 101.1%.

In turn, `COC(=O)N1CCC(c2ccc(-c3cc4c(C(=O)O)c[nH]c4cc3Cl)cc2)C1` (single isomer, unassigned) [Example 14B, 6-chloro-5-{4-[1-(methoxycarbonyl)pyrrolidin-3-yl]phenyl}-1H-indole-3-carboxylic acid] gave an EC50 of 0.118 µM and a Maximum of 91%.

`O=C(O)c1c[nH]c2cc(Cl)c(-c3ccc([C@H]4C[C@H](O)C4)cc3)cc12` [Example 138, 6-Chloro-5-[4-(trans-3-hydroxycyclobutyl)phenyl]-1H-indole-3-carboxylic acid]: the response was half-maximal at 0.0404 µM (EC50) and the Emax worked out at 117%.

`O=C(O)c1c[nH]c2cc(Cl)c(-c3ccc(N4CCCC4=O)cc3)cc12` [Example 64, 6-chloro-5-[4-(2-oxopyrrolidin-1-yl)phenyl]-1H-indole-3-carboxylic acid]: it took 0.169 µM to reach a half-maximal effect (EC50) and the Emax was 82%.

In the case of `CC(=O)NCCOc1ccc(-c2cc3c(C(=O)O)c[nH]c3cc2Cl)cc1` [Example 10, 5-{4-[2-(acetylamino)ethoxy]phenyl}-6-chloro-1H-indole-3-carboxylicacid], the EC50 was 0.0699 µM and the Emax was 91%.
